The source of these data is patent publication US20140135270A1, “MACROCYCLIC COMPOUNDS FOR INHIBITION OF INHIBITORS OF APOPTOSIS” (Ensemble Therapeutics Corp., priority 2012, published 2014).

The target of test [1] is T1, His-BIR3 (241-356, XIAP) (Homo sapiens, UniProt P98170).
T1 construct: additions of His-BIR3 (241-356, XIAP), fluorescein labeled SMAC peptide
Kind of test: XIAP-BIR3/SMAC Homogeneous Time Resolved Fluorescence (HTRF) Assay. The test is classed as binding. Conditions: fluorescein labeled SMAC peptide. In general terms: In TR-FRET formats the signal depends on donor and acceptor labels being close together.

Test [2] deals with T2, His-BIR2-3 (125-356, C202A/C213G, XIAP) (Homo sapiens, UniProt P98170, C202A/C213G).
T2 construct: additions of His-BIR2-3 (125-356, C202A/C213G, XIAP), fluorescein labeled dimeric SMAC peptide
T2 sequence (P98170 125-356 C202A/C213G): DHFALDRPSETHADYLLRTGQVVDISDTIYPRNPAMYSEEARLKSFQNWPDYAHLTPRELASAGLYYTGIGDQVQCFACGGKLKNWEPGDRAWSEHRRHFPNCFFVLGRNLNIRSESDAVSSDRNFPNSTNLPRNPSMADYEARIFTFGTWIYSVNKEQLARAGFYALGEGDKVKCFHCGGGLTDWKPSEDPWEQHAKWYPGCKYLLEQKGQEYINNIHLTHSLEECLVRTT
Kind of test: XIAP-BIR2-3 Dimeric SMAC Peptide Homogeneous Time Resolved Fluorescence (HTRF) Assay. The test is classed as binding. Particulars: fluorescein labeled dimeric SMAC peptide.

T1 sequence (P98170 241-356): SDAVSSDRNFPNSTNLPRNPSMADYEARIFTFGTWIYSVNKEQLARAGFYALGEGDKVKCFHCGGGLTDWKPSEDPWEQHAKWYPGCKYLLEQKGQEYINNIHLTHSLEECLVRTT

Regarding `CN[C@@H](C)C(=O)N[C@H](C(=O)N[C@H]1C/C=C/CC[C@@H](C(=O)O)NC(=O)[C@H](Cc2ccc3ccccc3c2)NC(=O)[C@@H]2[C@@H](CCN2C(=O)[C@@H](NC(=O)[C@H](C)NC)C(C)(C)C)OCc2cn(nn2)CC[C@@H](C(=O)OC)NC(=O)[C@H](Cc2ccc3ccccc3c2)NC1=O)C(C)(C)C` [Example 20], the IC50 (in general, the point on the concentration scale where inhibition reaches its midpoint) in test [1] worked out at 4.8 nM; in test [2] it was 7.3 nM.

As to `CN[C@@H](C)C(=O)N[C@H](C(=O)N[C@H]1C/C=C/COc2ccc(cc2)C[C@H](C(=O)O)NC(=O)[C@H](Cc2ccc3ccccc3c2)NC(=O)[C@@H]2[C@@H](CCN2C(=O)[C@@H](NC(=O)[C@H](C)NC)C(C)(C)C)OCc2cn(nn2)CC[C@@H](C(=O)OC)NC(=O)[C@H](Cc2ccc3ccccc3c2)NC1=O)C(C)(C)C` [Example 21], the results for the IC50 in test [1] and in test [2] were 1.8 nM and 2.6 nM, respectively.

Consider `CCCCCCCCCCCCS(=O)(=O)NC(=O)[C@@H]1Cc2ccc(cc2)OC/C=C/C[C@H]2C[C@@H](C(=O)N[C@@H](Cc3ccc4ccccc4c3)C(=O)N[C@H](C(=O)O)Cc3ccc(cc3)OCc3cn(nn3)[C@H]3C[C@@H](C(=O)N[C@@H](Cc4ccc5ccccc5c4)C(=O)N1)N(C(=O)[C@@H](NC(=O)[C@H](C)NC)C(C)(C)C)C3)N(C(=O)[C@@H](NC(=O)[C@H](C)NC)C(C)(C)C)C2` [Example 23], for which the IC50 was found to be 34.2 nM in test [1] and 6.9 nM in test [2].

In the case of `CN[C@@H](C)C(=O)N[C@H](C(=O)N1C[C@H]2C/C=C/COc3ccc(cc3)C[C@@H](C(=O)NS(=O)(=O)C3CCCCC3)NC(=O)[C@H](Cc3ccc4ccccc4c3)NC(=O)[C@@H]3C[C@@H](CN3C(=O)[C@@H](NC(=O)[C@H](C)NC)C(C)(C)C)n3cc(nn3)COc3ccc(cc3)C[C@@H](C(=O)O)NC(=O)[C@H](Cc3ccc4ccccc4c3)NC(=O)[C@@H]1C2)C(C)(C)C` [Example 24], the IC50 in test [1] turned out to be 0.7 nM; in test [2] it was 0.2 nM.

In the case of `CN[C@@H](C)C(=O)N[C@H](C(=O)N1C[C@H]2C/C=C/COc3ccc(cc3)C[C@@H](C(=O)NS(=O)(=O)C3CC3)NC(=O)[C@H](Cc3ccc4ccccc4c3)NC(=O)[C@@H]3C[C@@H](CN3C(=O)[C@@H](NC(=O)[C@H](C)NC)C(C)(C)C)n3cc(nn3)COc3ccc(cc3)C[C@@H](C(=O)O)NC(=O)[C@H](Cc3ccc4ccccc4c3)NC(=O)[C@@H]1C2)C(C)(C)C` [Example 25], the IC50 in test [1] came out at 0.9 nM; in test [2], 0.2 nM.

As to `CN[C@@H](C)C(=O)N[C@H](C(=O)N1C[C@H]2C/C=C/COc3ccc(cc3)C[C@@H](C(=O)NS(C)(=O)=O)NC(=O)[C@H](Cc3ccc4ccccc4c3)NC(=O)[C@@H]3C[C@@H](CN3C(=O)[C@@H](NC(=O)[C@H](C)NC)C(C)(C)C)n3cc(nn3)COc3ccc(cc3)C[C@@H](C(=O)O)NC(=O)[C@H](Cc3ccc4ccccc4c3)NC(=O)[C@@H]1C2)C(C)(C)C` [Example 26], the IC50 in test [1] was found to be 3.9 nM; in test [2], 0.9 nM.

As to `CNC(C)C(=O)NC(C(=O)N1CC2CCCCOc3ccc(cc3)CC(C(=O)NS(=O)(=O)CCCNC(C)=O)NC(=O)C(Cc3ccc4ccccc4c3)NC(=O)C3CC(CN3C(=O)C(NC(=O)C(C)NC)C(C)(C)C)n3cc(nn3)COc3ccc(cc3)CC(C(=O)O)NC(=O)C(Cc3ccc4ccccc4c3)NC(=O)C1C2)C(C)(C)C` (centres unmarked) [Example 27], the IC50 in test [1] is 3.5 nM; in test [2] it was 2.7 nM.

`CN[C@@H](C)C(=O)N[C@H](C(=O)N1C[C@H]2C/C=C/COc3ccc(cc3)C[C@@H](C(=O)O)NC(=O)[C@H](Cc3ccc4ccccc4c3)NC(=O)[C@@H]3C[C@@H](CN3C(=O)[C@@H](NC(=O)[C@H](C)NC)C(C)(C)C)NC(=O)c3ccc(cc3)C[C@@H](C(=O)O)NC(=O)C(Cc3ccc4ccccc4c3)NC(=O)[C@@H]1C2)C(C)(C)C` (some centres unmarked) [Example 28]: the IC50 was determined as 3.5 nM in test [1] and 1.1 nM in test [2].

Regarding `CNC(C)C(=O)NC(C(=O)N1CC2CC1C(=O)NC(Cc1ccc3ccccc3c1)C(=O)NC(C(=O)O)Cc1ccc(cc1)OCC=CCOC1CC(C(=O)NC(Cc3ccc4ccccc4c3)C(=O)NC(C(=O)O)Cc3ccc(cc3)CC(=O)N2)N(C(=O)C(NC(=O)C(C)NC)C(C)(C)C)C1)C(C)(C)C` (centres unmarked) [Example 30], the IC50 in test [1] stood at 7.5 nM; in test [2] it was 1.1 nM.

In the case of `CNC(C)C(=O)NC(C(=O)N1CC2CC1C(=O)NC(Cc1ccc3ccccc3c1)C(=O)NC(C(=O)O)Cc1ccc(cc1)OCC=CCOC1CC(C(=O)NC(Cc3ccc4ccccc4c3)C(=O)NC(C(=O)O)CCCCC(=O)N2)N(C(=O)C(NC(=O)C(C)NC)C(C)(C)C)C1)C(C)(C)C` (centres unmarked) [Example 31], the figures for the IC50 in test [1] and in test [2] were 5.8 nM and 2.1 nM, respectively.

With `CN[C@@H](C)C(=O)N[C@H](C(=O)N1C[C@@H]2C[C@H]1C(=O)N[C@@H](C)C(=O)N[C@H](C(=O)O)Cc1ccc(cc1)C(=O)N[C@H]1C[C@@H](C(=O)N[C@@H](Cc3ccc4ccccc4c3)C(=O)N[C@H](C(=O)O)Cc3ccc(cc3)OC/C=C/CO2)N(C(=O)[C@@H](NC(=O)[C@H](C)NC)C(C)(C)C)C1)C(C)(C)C` [Example 44], the IC50 in test [1] is 111 nM; in test [2] it was 3.5 nM.

On to `CC[C@H](NC(=O)[C@H](C)NC)C(=O)N1C[C@@H]2C[C@H]1C(=O)N[C@@H](C)C(=O)N[C@H](C(=O)O)Cc1ccc(cc1)C(=O)N[C@H]1C[C@@H](C(=O)N[C@@H](Cc3ccc4ccccc4c3)C(=O)N[C@H](C(=O)O)Cc3ccc(cc3)OC/C=C/CO2)N(C(=O)[C@@H](NC(=O)[C@H](C)NC)C(C)(C)C)C1` [Example 45], for which the IC50 was found to be 106 nM in test [1] and 7.9 nM in test [2].

With `CN[C@@H](C)C(=O)N[C@H](C(=O)N1C[C@@H]2C[C@H]1C(=O)N[C@@H](Cc1ccc3ccccc3c1)C(=O)N[C@H](C(=O)O)Cc1ccc(cc1)OC/C=C/CO[C@H]1C[C@@H](C(=O)N[C@@H](Cc3c[nH]c4ccccc34)C(=O)N[C@H](C(=O)O)Cc3ccc(cc3)C(=O)N2)N(C(=O)[C@@H](NC(=O)[C@H](C)NC)C(C)(C)C)C1)C(C)(C)C` [Example 46], the IC50 in test [1] stood at 24.2 nM; in test [2] it was 5.3 nM.

In the case of `CC[C@H](NC(=O)[C@H](C)NC)C(=O)N1C[C@@H]2C[C@H]1C(=O)N[C@@H](Cc1c[nH]c3ccccc13)C(=O)N[C@H](C(=O)O)Cc1ccc(cc1)C(=O)N[C@H]1C[C@@H](C(=O)N[C@@H](Cc3ccc4ccccc4c3)C(=O)N[C@H](C(=O)O)Cc3ccc(cc3)OC/C=C/CO2)N(C(=O)[C@@H](NC(=O)[C@H](C)NC)C(C)(C)C)C1` [Example 47], the IC50 in test [1] is 41.8 nM; in test [2] it was 6.3 nM.

For the molecule `CN[C@@H](C)C(=O)N[C@H](C(=O)N1C[C@@H]2C[C@H]1C(=O)N[C@@H](Cc1ccc3ccccc3c1)C(=O)N[C@H](C(=O)O)Cc1ccc(cc1)OC/C=C/CO[C@H]1C[C@@H](C(=O)N[C@@H](Cc3ccc(-c4ccccc4)cc3)C(=O)N[C@H](C(=O)O)Cc3ccc(cc3)C(=O)N2)N(C(=O)[C@@H](NC(=O)[C@H](C)NC)C(C)(C)C)C1)C(C)(C)C` [Example 48], the IC50 turned out to be 17.6 nM in test [1] and 2.6 nM in test [2].

In the case of `CC[C@H](NC(=O)[C@H](C)NC)C(=O)N1C[C@@H]2C[C@H]1C(=O)N[C@@H](Cc1ccc(-c3ccccc3)cc1)C(=O)N[C@H](C(=O)O)Cc1ccc(cc1)C(=O)N[C@H]1C[C@@H](C(=O)N[C@@H](Cc3ccc4ccccc4c3)C(=O)N[C@H](C(=O)O)Cc3ccc(cc3)OC/C=C/CO2)N(C(=O)[C@@H](NC(=O)[C@H](C)NC)C(C)(C)C)C1` [Example 49], the concentration for half-maximal inhibition (IC50) is 16.1 nM in test [1] and 4.8 nM in test [2].
